Results published in ChEMBL document CHEMBL4828781, “Novel Heteroaromatic Carboxamide Derivatives as Plasma Kallikrein Inhibitors for Treating Diabetic Complications, Ocular Diseases and Edema-Associated Diseases” (ACS Med Chem Lett, 2021).

Biological target: Plasma kallikrein (Homo sapiens, UniProt P03952)
Assay: Inhibition of human plasma kallikrein using […] as fluorogenic substrate measured every 2 mins for 12 mins by microplate reader analysis

Sequence of Plasma kallikrein (P03952 20-390 limits assumed): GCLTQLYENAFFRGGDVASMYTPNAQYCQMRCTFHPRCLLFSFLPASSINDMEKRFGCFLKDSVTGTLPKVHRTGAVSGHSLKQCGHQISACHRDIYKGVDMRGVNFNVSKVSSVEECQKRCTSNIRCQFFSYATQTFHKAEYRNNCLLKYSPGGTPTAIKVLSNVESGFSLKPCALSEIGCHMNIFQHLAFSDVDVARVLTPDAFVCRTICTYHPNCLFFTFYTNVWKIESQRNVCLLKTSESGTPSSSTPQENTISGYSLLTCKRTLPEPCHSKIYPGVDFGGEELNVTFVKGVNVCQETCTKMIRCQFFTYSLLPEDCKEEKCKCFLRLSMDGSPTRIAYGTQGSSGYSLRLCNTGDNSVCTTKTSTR
Sequence of Plasma kallikrein (P03952 391-638 limits assumed): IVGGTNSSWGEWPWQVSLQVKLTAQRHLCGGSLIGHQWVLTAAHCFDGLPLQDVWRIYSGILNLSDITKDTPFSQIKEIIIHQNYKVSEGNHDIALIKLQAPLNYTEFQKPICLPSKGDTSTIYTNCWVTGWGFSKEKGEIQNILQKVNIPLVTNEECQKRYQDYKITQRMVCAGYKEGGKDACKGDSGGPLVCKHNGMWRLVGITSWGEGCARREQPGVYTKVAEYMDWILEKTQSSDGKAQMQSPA

How did the IC50 turn out when Cc1c(Cn2cnc(C(=O)N[C@@H]3CCc4c3ncn4C)c2)ccc(N2CC3CC3C2)c1C#N (stereo partly specified) was run?
The IC50 was 0.3 nM.
